What was measured:
[1] = Liver microsomal stability, SD rat; type: in vitro ADME; conditions: Sprague-Dawley, liver microsomes, pH 7.4, 0.5 mg/mL
Protocol: Samples were analyzed using UPLC-MS/MS.

MDR1 = test: in vitro; conditions: dog, MDCK-MDR1, 5 µM; for Papp A→B at 2 h, 5 µM: MDCK-MDR1, pH 7.4, Papp A to B; for Papp B→A at 2 h, 5 µM: MDCK-MDR1, pH 7.4, Papp B to A
MATE1 = conditions: cited from earlier work
in vitro = in vitro ADME; conditions: both sexes, human, plasma
Protocol: Plasma protein binding experiments were carried out in mixed-gender human plasma, male Sprague-Dawley rat plasma, male CD-1 plasma, male Beagle dog plasma, and male Cynomolgus monkey plasma (BioIVT) using a Pierce Rapid Equilibration Dialysis (RED) device. […] Blank phosphate-buffered saline (PBS) (500 μL) was added to each corresponding receiver chamber. After 4 h of incubation (with shaking at 37°C), both sides were aliquoted, and matrix was normalized. Samples were centrifuged at 1000 g for 10 min after adding two volumes of ACN with IS. Supernatants were diluted 1:1 with water and analyzed with LC-MS/MS.
Plasma Protein binding was calculated as follows:
% Bound = [(PARR in Donor–PARR in Receiver)/(PARR in Donor)] × 100.
PARR = peak area response ratio to internal standard, including applicable dilution factors.

[2] = 7-days dose range finding study in rats; conditions: oral, 7 days, 1,500 mg/kg/day

SMILES: N#C[C@@]1(c2ccc3c(N)ncnn23)O[C@H](CO)[C@@H](O)[C@H]1O [GS-441524]
- half-life at 1 µM [1]: 1.02 ± 0.15 h
- Papp A→B at 2 h, 5 µM (MDR1; 1 µM Valspodar): 4.84 nm/s
- Papp A→B at 2 h, 5 µM (MDR1; no inhibitor): 1.58 nm/s
- Papp B→A at 2 h, 5 µM (MDR1; 1 µM Valspodar): 4.68 nm/s
- Papp B→A at 2 h, 5 µM (MDR1; no inhibitor): 5.21 nm/s
- Substrate of MATE1 (MATE1): not a substrate
- fraction unbound at 4 h, 10 µM (in vitro): ~0.78
- Tolerability at maximum feasible dose [2]: well tolerated

Reference: publication PMC9424906 (Frontiers in Pharmacology, 2022)
